Laboratory results reported in ChEMBL document CHEMBL6071136, “Discovery of macrocyclic covalent inhibitors for severe acute respiratory syndrome coronavirus 2 3CL protease” (Bioorg Med Chem, 2024).

Tests used:
[1] = Metabolic stability in rat liver microsomes assessed as half life measured upto 60 mins in presence of NADPH by LC/MS-MS analysis; assay type: ADME, Microsome
[2] = Metabolic stability in human liver microsomes assessed as half life measured upto 60 mins in presence of NADPH by LC/MS-MS analysis; assay type: ADME, Microsome
[3] = Cmax in Sprague-Dawley rat at 10 mg/kg, po measured upto 24 hrs by LC/MS-MS analysis; assay type: ADME, organism-based; settings: in vivo
[4] = AUClast in Sprague-Dawley rat at 10 mg/kg, po measured upto 24 hrs by LC/MS-MS analysis; assay type: ADME, organism-based; settings: in vivo
[5] = Apparent permeability across apical to basolateral side in human Caco-2 cells incubated for 2 hrs by LC-MS/MS analysis; assay type: ADME, cell-based
[6] = Half-life in Sprague-Dawley rat at 10 mg/kg, po measured upto 24 hrs by LC/MS-MS analysis; assay type: ADME, organism-based; settings: in vivo
[7] = target: Replicase polyprotein 1ab (Severe acute respiratory syndrome coronavirus 2, UniProt P0DTD1); experiment: Inhibition of SARS-CoV-2 3CL protease using Dabcyl-KTSAVLQSGFRKM-(Edans) as substrate preincubated for 30 mins followed by substrate addition and measured after 60 mins by fluorescence based microplate reader assay
[8] = tested on: SARS-CoV-2; experiment: microbe, parasite or virus in culture; settings: Severe acute respiratory syndrome coronavirus 2, Huh-7, 24 h
[9] = Metabolic stability in human liver S9 fraction assessed as half life measured upto 60 mins by LC/MS-MS analysis; assay type: ADME, subcellular
[10] = Efflux ratio of apparent permeability across basolateral to apical side over apical to basolateral side in human Caco-2 cells; assay type: ADME, cell-based
[11] = Cmax in Sprague-Dawley rat at 50 mg/kg, po measured upto 24 hrs by LC/MS-MS analysis; assay type: ADME, organism-based; settings: in vivo
[12] = Tmax in Sprague-Dawley rat at 10 mg/kg, po measured upto 24 hrs by LC/MS-MS analysis; assay type: ADME, organism-based; settings: in vivo
[13] = Half-life in Sprague-Dawley rat at 50 mg/kg, po measured upto 24 hrs by LC/MS-MS analysis; assay type: ADME, organism-based; settings: in vivo
[14] = Stability of compound in FaSSGF at 10 uM measured after 4 hrs by LC-MS analysis; assay type: physicochemical
[15] = Tmax in Sprague-Dawley rat at 50 mg/kg, po measured upto 24 hrs by LC/MS-MS analysis; assay type: ADME, organism-based; settings: in vivo
[16] = AUClast in Sprague-Dawley rat at 50 mg/kg, po measured upto 24 hrs by LC/MS-MS analysis; assay type: ADME, organism-based; settings: in vivo

SMILES	half-life [2]	Papp A→B at 2 h [5]	IC50 [7]	EC50 [8]	efflux ratio [10]	other results
CC(C)(C)[C@H](NC(=O)C(F)(F)F)C(=O)N1C[C@H]2[C@@H]([C@H]1C(=O)N[C@H](C#N)C[C@@H]1CCNC1=O)C2(C)C	20.6 min	0.27 ×10⁻⁶ cm/s				half-life [1]: 127 min; Cmax [3]: 2840 ng/mL; AUC(0-t) at 24 h [4]: 2020 ng·h/mL; half-life [6]: 76.2 min
CC1(C)CCCC[C@@H]2C[C@@H](C[C@@H](C#N)NC(=O)[C@@H]3[C@@H]4[C@H](CN3C(=O)[C@H]1NC(=O)C(F)(F)F)C4(C)C)C(=O)N2	4.4 min		10 nM	84 nM		
CC1(C)CNC(=O)[C@@H]2C[C@@H](C[C@@H](C#N)NC(=O)[C@@H]3[C@@H]4[C@H](CN3C(=O)[C@H]1NC(=O)COc1ccc(F)cc1F)C4(C)C)C(=O)N2	6.3 min		70 nM	1550 nM		
CC1(C)COC(=O)[C@@H]2C[C@@H](C[C@@H](C#N)NC(=O)[C@@H]3[C@@H]4[C@H](CN3C(=O)[C@H]1NC(=O)C1CC1)C4(C)C)C(=O)N2	154 min	0.08 ×10⁻⁶ cm/s	12 nM	190 nM	22	half-life [9]: > 180 min
CC1(C)COC(=O)[C@@H]2C[C@@H](C[C@@H](C#N)NC(=O)[C@@H]3[C@@H]4[C@H](CN3C(=O)[C@H]1NC(=O)C(F)(F)c1ccc(F)cc1)C4(C)C)C(=O)N2	6 min	0.1 ×10⁻⁶ cm/s	22 nM	130 nM	206	
CC1(C)CNC(=O)[C@@H]2C[C@@H](C[C@@H](C#N)NC(=O)[C@@H]3[C@@H]4[C@H](CN3C(=O)[C@H]1NC(=O)C1CC1)C4(C)C)C(=O)N2	> 180 min		32 nM	6570 nM		
CC1(C)CCCC[C@@H]2C[C@@H](C[C@@H](C#N)NC(=O)[C@@H]3[C@@H]4[C@H](CN3C(=O)[C@H]1NC(=O)OCc1ccccc1)C4(C)C)C(=O)N2			27 nM	31 nM		
CC1(C)COC(=O)[C@@H]2C[C@@H](C[C@@H](C#N)NC(=O)[C@@H]3[C@@H]4[C@H](CN3C(=O)[C@H]1NC(=O)CC1CC1)C4(C)C)C(=O)N2	78 min		21 nM	310 nM		
COC(=O)N[C@@H]1C(=O)N2C[C@H]3[C@@H]([C@H]2C(=O)N[C@H](C#N)C[C@@H]2C[C@H](NC2=O)C(=O)OCCC1(C)C)C3(C)C	> 180 min	0.03 ×10⁻⁶ cm/s	8.9 nM	179 nM	65	
CC1(C)COC(=O)[C@@H]2C[C@@H](C[C@@H](C#N)NC(=O)[C@@H]3[C@@H]4[C@H](CN3C(=O)[C@H]1NC(=O)C(F)(F)F)C4(C)C)C(=O)N2	> 180 min	0.5 ×10⁻⁶ cm/s	34 nM	181 nM	34	half-life [9]: > 180 min
CC1(C)CNC(=O)[C@@H]2C[C@H](C[C@@H](C#N)NC(=O)[C@@H]3[C@@H]4[C@H](CN3C(=O)[C@H]1NC(=O)OCc1ccccc1)C4(C)C)C(=O)N2		0.05 ×10⁻⁶ cm/s	12 nM		103	
COC(=O)N[C@@H]1C(=O)N2C[C@H]3[C@@H]([C@H]2C(=O)N[C@H](C#N)C[C@@H]2C[C@@H](CCCCC1(C)C)NC2=O)C3(C)C	13.9 min		4.6 nM	100 nM		
CC1(C)CCOC(=O)[C@@H]2C[C@@H](C[C@@H](C#N)NC(=O)[C@@H]3[C@@H]4[C@H](CN3C(=O)[C@H]1NC(=O)C(F)(F)F)C4(C)C)C(=O)N2	> 180 min	0.02 ×10⁻⁶ cm/s	12 nM	26 nM	342	half-life [1]: > 180 min; Cmax [3]: 16.2 ng/mL; Cmax [11]: 102 ng/mL; Tmax [12]: 15 min; half-life [13]: 28.3 min; Stability [14]: Stable; Tmax [15]: 20 min; AUC(0-t) at 24 h [4]: 5.94 ng·h/mL; AUC(0-t) at 24 h [16]: 72.9 ng·h/mL; half-life [6]: 20 min
CN1CC(C)(C)[C@H](NC(=O)OCc2ccccc2)C(=O)N2C[C@H]3[C@@H]([C@H]2C(=O)N[C@H](C#N)C[C@@H]2C[C@H](NC2=O)C1=O)C3(C)C		0.17 ×10⁻⁶ cm/s	> 10000 nM	> 10000 nM	12	half-life [9]: 0.17 min
Cc1cccc(C)c1OCC(=O)N[C@@H]1C(=O)N2C[C@H]3[C@@H]([C@H]2C(=O)N[C@H](C#N)C[C@@H]2C[C@H](NC2=O)C(=O)NCC1(C)C)C3(C)C	4 min	0.13 ×10⁻⁶ cm/s	320 nM	5570 nM	64	
CC1(C)CNC(=O)[C@@H]2C[C@H](C[C@@H](C#N)NC(=O)[C@@H]3[C@@H]4[C@H](CN3C(=O)[C@H]1NC(=O)C(F)(F)F)C4(C)C)C(=O)N2	> 180 min	0.09 ×10⁻⁶ cm/s	75 nM		10	
CC(C)(C)C(=O)N[C@@H]1C(=O)N2C[C@H]3[C@@H]([C@H]2C(=O)N[C@H](C#N)C[C@@H]2C[C@H](NC2=O)C(=O)NCC1(C)C)C3(C)C			307 nM			
COC(=O)N[C@@H]1C(=O)N2C[C@H]3[C@@H]([C@H]2C(=O)N[C@H](C#N)C[C@@H]2C[C@H](NC2=O)C(=O)OCC1(C)C)C3(C)C	> 180 min	0.16 ×10⁻⁶ cm/s	8.6 nM	52 nM	30	half-life [1]: 76.2 min; Cmax [3]: 87.5 ng/mL; Tmax [12]: 20 min; Stability [14]: Stable; AUC(0-t) at 24 h [4]: 72.9 ng·h/mL; half-life [6]: 68.4 min; half-life [9]: > 180 min
CC1(C)COC(=O)[C@@H]2C[C@@H](C[C@@H](C#N)NC(=O)[C@@H]3[C@@H]4[C@H](CN3C(=O)[C@H]1NC(=O)OC1CC1)C4(C)C)C(=O)N2	> 180 min	0.08 ×10⁻⁶ cm/s	17 nM	67 nM	20	half-life [9]: > 180 min
CC1(C)COC(=O)[C@@H]2C[C@@H](C[C@@H](C#N)NC(=O)[C@@H]3[C@@H]4[C@H](CN3C(=O)[C@H]1NC(=O)C(F)(F)Cc1ccccc1)C4(C)C)C(=O)N2	1.7 min	0.08 ×10⁻⁶ cm/s	23 nM	49 nM	154	
CN1CC(C)(C)[C@H](NC(=O)C(F)(F)F)C(=O)N2C[C@H]3[C@@H]([C@H]2C(=O)N[C@H](C#N)C[C@@H]2C[C@H](NC2=O)C1=O)C3(C)C			> 10000 nM	> 10000 nM		
CC1(C)COC(=O)[C@@H]2C[C@@H](C[C@@H](C#N)NC(=O)[C@@H]3[C@@H]4[C@H](CN3C(=O)[C@H]1NC(=O)OCc1ccccc1)C4(C)C)C(=O)N2	6.5 min	0.16 ×10⁻⁶ cm/s	6.4 nM	25 nM	108	
CC1(C)CNC(=O)[C@@H]2C[C@@H](C[C@@H](C#N)NC(=O)[C@@H]3[C@@H]4[C@H](CN3C(=O)[C@H]1NC(=O)C(F)(F)F)C4(C)C)C(=O)N2	> 180 min		18 nM	264 nM		
CC1(C)COC(=O)[C@@H]2C[C@@H](C[C@@H](C#N)NC(=O)[C@@H]3[C@@H]4[C@H](CN3C(=O)[C@H]1NC(=O)C(F)(F)C1CC1)C4(C)C)C(=O)N2	71 min	0.13 ×10⁻⁶ cm/s	14 nM	36 nM	96.4	half-life [1]: 34.8 min; Cmax [3]: 131 ng/mL; Tmax [12]: 20 min; AUC(0-t) at 24 h [4]: 119 ng·h/mL; half-life [6]: 38.5 min
CC1(C)CNC(=O)[C@@H]2C[C@@H](C[C@@H](C#N)NC(=O)[C@@H]3[C@@H]4[C@H](CN3C(=O)[C@H]1NC(=O)OCc1ccccc1)C4(C)C)C(=O)N2	4.3 min		8.8 nM	73 nM		half-life [1]: 4.3 min
